Assay results reported in US20150299061A1, “FERTILISER COMPOSITION” (priority 2012, published 2015).
Marks after values point to notes of the source that are not given here.

Tested on: grazed pasture
Assay: Field trial on grazed pasture: pasture shoot dry matter from two cuts after treatment application
Assay type: in vivo
Design: Mean Difference vs C (control) / Mean Difference vs UG-20 / Mean Difference vs UG-20 + GA-10 / Mean Difference vs UG-20 + GA-30 / Mean Difference vs UG-20 + GA-60 / Mean Difference vs UL-20 / Mean Difference vs UL-20 + GA-20 / Mean Difference (Control minus treatment): unit not given here
Protocol: The trial was carried out with a total of eight treatments. The eight treatment groups were • 1. Control—negative control (no nitrogen or gibberellic acid), • 2. GA-20—gibberellic acid positive control (gibberellic acid applied at 20 g/ha), • 3. UG-20—granular urea positive control (granular urea applied at a rate of 20 kg N/ha, • 4. UG-20+GA-10—10 g/ha gibberellic acid-coated urea granules (granular urea-20 coated with gibberellic acid to apply gibberellic acid at a rate of 10 g/ha), • 5. UG-20+GA-30—30 g/ha gibberellic acid-coated urea granules (granular urea-20 coated with gibberellic acid to apply gibberellic acid at a rate of 30 g/ha), and • 6. UG-20+GA-60—60 g/ha gibberellic acid-coated urea granules (granular urea-20 coated with gibberellic acid to apply gibberellic acid at a rate of 60 g/ha). • 7. UL-20—liquid urea positive control (liquid urea applied at a rate of 20 kg N/ha [with total liquid volume of 200 L/ha]), and 8. UL-20+GA-20—liquid urea and gibberellic acid positive control (liquid urea applied at a rate of 20 kg N/ha with gibberellic acid applied at a rate of 20 g/ha).
The trial was performed with four repetitions per treatment group on a plot with an area of 2 m^2×2 m^2 at locations in Whangarei, Matamata, Lincoln, Ashburton, and Southland.
The treatments were applied on grazed pasture. All experimental sites were fenced off four months prior to treatment application to avoid nitrogen inputs from grazing animals and fertiliser application. At each site, four blocks separated by a 1 m buffer were established. Each block contained eight small plots (each plot of 2m^2×2m^2) separated by a 1 m buffer zone to give a total of 32 plots.
The above eight treatments were applied in mid August 2011. Before treatments application, four composite soil samples (0-10 cm soil depth), were collected for key soil properties (i.e. soil pH, organic C &N, Olsen P, K, Ca, Mg, CEC, base saturation and MAF quick test). Each composite soil sample composed of 10 randomly collected soil samples from each block. Pastures from each plot were cut at 4 to 5 cm height using a lawn mower at appropriate times (preferably after every 21 days) to simulate rotational grazing practices. Bulk fresh pasture weight for each plot was recorded. Before mowing pastures from each plot, four small randomly picked pasture samples from each plot were cut using a pair of scissors. Fresh pastures were transferred to sealable plastic bags and were kept in a chilly bin. Fresh pastures from each plastic bag were then be transferred to a pre-weighed paper bag, weighed (at least 2 decimal balance), and dried at 60 to 70° C. for one week. After one week of drying, dry pasture weight was recorded to determine pasture moisture content.
In the case of liquid treatments, these were all applied at a rate of 200 L/ha.
The effectiveness of the treatments was measured by comparing the pasture shoot dry matter from two cuts after treatment application. The first cut was made on 26 Sep. 2011 and the second cut made on 12 Oct. 2011.
The pairwise comparisons were calculated using Fisher's least significant difference (LSD) with P=0.05.

SMILES: C=C1C[C@]23C[C@@]1(O)CC[C@H]2[C@@]12C=C[C@H](O)[C@@](C)(C(=O)O1)[C@H]2[C@@H]3C(=O)O [GA-20 only, gibberellic acid]
- Cumulative mean pasture dry matter (mean for the five treatment areas (Whangarei, Matamata, Lincoln, Ashburton, Southland), two cuts after treatment): 3038.7
- Mean Difference (Control minus treatment) (pairwise comparison of Table 1 means, Fisher's LSD P=0.05, Control is first treatment, labelled treatment is subtracted): −757.857*
- Mean Difference vs C (control) (pairwise comparison, Fisher's LSD P=0.05, treatment minus C): 757.857*
- Mean Difference vs UG-20 (pairwise comparison, Fisher's LSD P=0.05, treatment minus UG-20): 56.321
- Mean Difference vs UG-20 + GA-10 (pairwise comparison, Fisher's LSD P=0.05, treatment minus UG-20 + GA-10): −91.281
- Mean Difference vs UG-20 + GA-30 (pairwise comparison, Fisher's LSD P=0.05, treatment minus UG-20 + GA-30): −427.001*
- Mean Difference vs UG-20 + GA-60 (pairwise comparison, Fisher's LSD P=0.05, treatment minus UG-20 + GA-60): −381.674*
- Mean Difference vs UL-20 (pairwise comparison, Fisher's LSD P=0.05, treatment minus UL-20): −141.578
- Mean Difference vs UL-20 + GA-20 (pairwise comparison, Fisher's LSD P=0.05, treatment minus UL-20 + GA-20): −423.846*
